Measured values from paper PMC5146859, “Phase 1/2 study of pacritinib, a next generation JAK2/FLT3 inhibitor, in myelofibrosis or other myeloid malignancies” (Journal of Hematology & Oncology, 2016).

Tested on: patients with MF
Assay: Phase 2 MF Quality of Life and Symptoms Assessment Tool
Assay type: in vivo, human
Details: phase 2, 400 mg QD
Description: In phase 2, abdominal MRI to assess spleen and liver volume was performed on day 1 of cycles 1, 4, and 7 and then day 1 of every third cycle through cycle 25. Spleen size (length) was also assessed by manual palpation with each scheduled physical examination. The phase 2 study protocol was amended in September 2009 to include the MF Quality of Life and Symptoms Assessment Tool. […] The instrument was administered pre-dose on day 1 of cycles 1, 2, 4, 7, and 10 and then on day 1 of every third cycle through cycle 25.
The primary endpoint of the phase 2 component was the proportion of the efficacy population who achieved a ≥35% reduction in spleen volume from baseline at week 24, as measured by MRI. Spleen response rate was also assessed in terms of a ≥35% reduction in spleen volume by MRI up to week 24 and end of treatment and as a ≥50% reduction in spleen length by physical examination up to week 24 and end of treatment. Duration of response was not analyzed due to limitations in the proportion of responders. An exploratory endpoint was the proportion of patients with a ≥50% reduction in MF Quality of Life and Symptoms Assessment Tool at week 24 compared with baseline.

C1=C/COCc2cc(ccc2OCCN2CCCC2)Nc2nccc(n2)-c2cccc(c2)COC/1 [pacritinib, 11-(2-pyrrolidin-1-yl-ethoxy)-14,19-dioxa-5,7,26-triaza-tetracyclo[19.3.1.1(2,6). 1(8,12)]heptacosa-1(25),2(26),3,5,8,10,12(27),16,21,23-decaene]
Individual symptoms and overall quality of life score: Improvement was seen in each of the individual symptoms | Bone pain, Mean percent change from baseline at Week 24 (SD) (N = 11): -51.6 (43.04) % | Night sweats, Mean percent change from baseline at Week 24 (SD) (N = 11): -31.3 (85.45) % | Itching (pruritus), Mean percent change from baseline at Week 24 (SD) (N = 12): -62.6 (45.35) % | Abdominal pain, Mean percent change from baseline at Week 24 (SD) (N = 16): -54.2 (58.14) % | Overall quality of life, Mean percent change from baseline at Week 24 (SD) (N = 16): -38.1 (49.50) % | Early satiety, Mean percent change from baseline at Week 24 (SD) (N = 17): -42.2 (37.53) % | Fatigue – worst, Mean percent change from baseline at Week 24 (SD) (N = 18): -12.5 (63.55) % | Total symptom score, Mean percent change from baseline at Week 24 (SD) (N = 18): -27.5 (39.01) % | Evaluable patients with ≥50% reduction in MF Quality of Life and Symptom Assessment total score (week 24 (7/18)): 38.9%
